Test results: patent US9079901B2, “Fused heterocyclic compounds as ion channel modulators” (Gilead Sciences, Inc., priority 2010, dated 2015)

Biological target: wild-type human cardiac sodium channel, hNav1.5 (late sodium current) in HEK293 cells (Homo sapiens, UniProt Q14524)
Assay: Late INa screening assay (automated whole-cell patch clamp, PatchXpress)
Type: cell-based
Details: HEK293, compound at 1 μM; late INa generated with 10 μM Tefluthrin (or 50 nM ATX II); HEK293 hNav1.5; read-out: Late INa 1 μM (percent block of late INa)
Summary of the method: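 Percent block was derived from mean current 225–250 ms into a 250 ms depolarisation to −20 mV (holding −120 mV, every 10 s), normalised to the current left in Na-free solution. Whole-cell recordings came from HEK293 cells stably expressing α-subunit-only hNav1.5, at 24–27 °C. Late current was enhanced with 10 μM tefluthrin or 50 nM ATX II, then compound (typically 10 μM) was added three times over 7–8 min.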

Chain of wild-type human cardiac sodium channel, hNav1.5 (late sodium current) in HEK293 cells (Q14524 whole entry): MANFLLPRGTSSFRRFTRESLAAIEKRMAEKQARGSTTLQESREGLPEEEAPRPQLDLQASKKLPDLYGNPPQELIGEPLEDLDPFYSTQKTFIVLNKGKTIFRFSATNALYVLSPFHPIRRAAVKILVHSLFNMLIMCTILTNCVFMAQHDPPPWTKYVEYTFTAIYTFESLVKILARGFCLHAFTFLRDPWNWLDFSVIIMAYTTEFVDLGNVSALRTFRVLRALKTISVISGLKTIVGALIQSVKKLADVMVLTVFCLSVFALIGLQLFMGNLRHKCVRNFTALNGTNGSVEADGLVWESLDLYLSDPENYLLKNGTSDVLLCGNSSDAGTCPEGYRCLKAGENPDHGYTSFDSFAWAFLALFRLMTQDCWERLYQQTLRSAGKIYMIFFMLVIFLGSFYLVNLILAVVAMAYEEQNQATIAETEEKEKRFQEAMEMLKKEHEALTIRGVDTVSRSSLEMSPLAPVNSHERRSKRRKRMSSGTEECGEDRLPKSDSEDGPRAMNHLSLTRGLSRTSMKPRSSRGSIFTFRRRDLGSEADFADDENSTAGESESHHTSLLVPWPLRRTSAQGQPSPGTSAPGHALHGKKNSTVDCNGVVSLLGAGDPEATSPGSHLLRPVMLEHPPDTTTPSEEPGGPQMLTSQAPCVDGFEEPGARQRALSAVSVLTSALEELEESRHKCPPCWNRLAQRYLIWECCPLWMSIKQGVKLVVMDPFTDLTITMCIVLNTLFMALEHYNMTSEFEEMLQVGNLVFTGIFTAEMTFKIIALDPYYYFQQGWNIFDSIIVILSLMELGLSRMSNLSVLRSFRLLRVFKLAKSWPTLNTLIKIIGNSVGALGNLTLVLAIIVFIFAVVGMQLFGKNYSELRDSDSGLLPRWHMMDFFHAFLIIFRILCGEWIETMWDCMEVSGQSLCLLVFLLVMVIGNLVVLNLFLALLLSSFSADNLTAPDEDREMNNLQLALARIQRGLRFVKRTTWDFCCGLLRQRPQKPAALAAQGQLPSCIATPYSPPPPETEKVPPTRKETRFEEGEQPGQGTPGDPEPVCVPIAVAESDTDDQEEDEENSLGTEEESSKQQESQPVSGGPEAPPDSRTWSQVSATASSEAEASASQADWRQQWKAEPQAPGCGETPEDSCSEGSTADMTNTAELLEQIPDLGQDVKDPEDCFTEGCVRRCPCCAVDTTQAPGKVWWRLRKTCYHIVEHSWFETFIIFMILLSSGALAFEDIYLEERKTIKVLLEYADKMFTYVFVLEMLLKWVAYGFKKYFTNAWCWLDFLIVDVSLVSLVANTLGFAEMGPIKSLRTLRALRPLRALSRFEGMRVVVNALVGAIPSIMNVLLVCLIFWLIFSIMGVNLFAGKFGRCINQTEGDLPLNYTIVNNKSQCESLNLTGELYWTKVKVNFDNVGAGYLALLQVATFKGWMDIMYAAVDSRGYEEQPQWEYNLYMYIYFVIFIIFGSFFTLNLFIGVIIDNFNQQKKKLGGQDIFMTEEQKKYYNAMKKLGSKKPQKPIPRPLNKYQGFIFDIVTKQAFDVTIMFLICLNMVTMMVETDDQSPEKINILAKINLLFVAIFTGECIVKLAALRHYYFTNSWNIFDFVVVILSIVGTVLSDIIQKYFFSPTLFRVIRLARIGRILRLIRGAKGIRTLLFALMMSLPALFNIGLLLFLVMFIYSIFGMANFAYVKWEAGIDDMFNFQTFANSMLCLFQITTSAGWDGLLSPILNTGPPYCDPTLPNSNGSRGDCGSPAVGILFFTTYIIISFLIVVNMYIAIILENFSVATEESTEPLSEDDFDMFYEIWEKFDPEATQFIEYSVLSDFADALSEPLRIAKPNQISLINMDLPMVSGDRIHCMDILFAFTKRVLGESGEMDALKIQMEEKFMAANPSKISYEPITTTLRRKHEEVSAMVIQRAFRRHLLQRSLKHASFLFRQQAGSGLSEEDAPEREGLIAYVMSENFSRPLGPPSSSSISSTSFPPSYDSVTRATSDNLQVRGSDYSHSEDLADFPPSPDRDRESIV

| SMILES | inhibition at 1 µM [%] |
| --- | --- |
| CC(C)Oc1ccccc1OCC(O)Cn1nc2ccc(-c3ccc(OC(F)(F)F)cc3)cn2c1=O (stereo not shown) [compound 108, 2-(2-hydroxy-3-(2-isopropoxyphenoxy)propyl)-6-(4-(trifluoromethoxy)phenyl)-[1,2,4]triazolo[4,3-a]pyridin-3(2H)-one] | 41.5 |
| CCc1noc(C(C)n2nc3ccc(-c4ccc(OC(F)(F)F)cc4)cn3c2=O)n1 (stereo not shown) [compound 14, 2-(1-(3-ethyl-1,2,4-oxadiazol-5-yl)ethyl)-6-(4-(trifluoromethoxy)phenyl)-[1,2,4]triazolo[4,3-a]pyridin-3(2H)-one] | 12 |
| O=c1[nH]nc2ccc(-c3ccc(Oc4ccc(F)cc4)cc3)cn12 [compound 143, 6-(4-(4-fluorophenoxy)phenyl)-[1,2,4]triazolo[4,3-a]pyridin-3(2H)-one] | 56.6 |
| CCOC(COc1ccc2nc(C)sc2c1)Cn1nc2ccc(-c3ccc(OC(F)(F)F)cc3)cn2c1=O (stereo not shown) [compound 124, 2-(2-ethoxy-3-(2-methylbenzo[d]thiazol-6-yloxy)propyl)-6-(4-(trifluoromethoxy)phenyl)-[1,2,4]triazolo[4,3-a]pyridin-3(2H)-one] | 31.2 |
| O=c1n(CCOc2ccccc2Cl)nc2ccc(-c3ccc(OC(F)(F)F)cc3)cn12 [compound 46, 2-(2-(2-chlorophenoxy)ethyl)-6-(4-(trifluoromethoxy)phenyl)-[1,2,4]triazolo[4,3-a]pyridin-3(2H)-one] | 43.2 |
| O=c1n(Cc2ncon2)nc2ccc(-c3ccc(OC(F)(F)F)cc3)cn12 [compound 27, 2-((1,2,4-oxadiazol-3-yl)methyl)-6-(4-(trifluoromethoxy)phenyl)-[1,2,4]triazolo[4,3-a]pyridin-3(2H)-one] | 11.2 |
| Cc1noc(Cn2nc3ccc(-c4ccc(OC(F)(F)F)cc4C)cn3c2=O)n1 [compound 87, 2-((3-methyl-1,2,4-oxadiazol-5-yl)methyl)-6-(2-methyl-4-(trifluoromethoxy)phenyl)-[1,2,4]triazolo[4,3-a]pyridin-3(2H)-one] | 21.3 |
| Cc1noc(C(C)n2nc3ccc(-c4ccc(OC(F)(F)F)cc4)cn3c2=O)n1 (stereo not shown) [compound 147, 2-(1-(3-methyl-1,2,4-oxadiazol-5-yl)ethyl)-6-(4-(trifluoromethoxy)phenyl)-[1,2,4]triazolo[4,3-a]pyridin-3(2H)-one] | 13.4 |
| Cc1noc(Cn2nc3ccc(-c4ccc(OCC(F)(F)F)cc4)cn3c2=O)n1 [compound 83, 2-((3-methyl-1,2,4-oxadiazol-5-yl)methyl)-6-(4-(2,2,2-trifluoroethoxy)phenyl)-[1,2,4]triazolo[4,3-a]pyridin-3(2H)-one] | 10.7 |
| Cn1ccc(Cn2nc3ccc(-c4ccc(OC(F)(F)F)cc4)cn3c2=O)n1 [compound 165, 2-((1-methyl-1H-pyrazol-3-yl)methyl)-6-(4-(trifluoromethoxy)phenyl)-[1,2,4]triazolo[4,3-a]pyridin-3(2H)-one] | 10.8 |
| Cc1noc(Cn2nc3ccc(-c4ccc(Oc5ccc(F)cc5)cc4)cn3c2=O)n1 [compound 93, 6-(4-(4-fluorophenoxy)phenyl)-2-((3-methyl-1,2,4-oxadiazol-5-yl)methyl)-[1,2,4]triazolo[4,3-a]pyridin-3(2H)-one] | 71.3 |
| Cc1nc(Cn2nc3ccc(-c4ccc(OC(F)(F)F)cc4)cn3c2=O)no1 [compound 3, 2-((5-methyl-1,2,4-oxadiazol-3-yl)methyl)-6-(4-(trifluoromethoxy)phenyl)-[1,2,4]triazolo[4,3-a]pyridin-3(2H)-one] | 29.3 |
| Cc1nc(Cn2nc3ccc(-c4cccc(Oc5ccccc5)c4)cn3c2=O)no1 [compound 31, 2-((5-methyl-1,2,4-oxadiazol-3-yl)methyl)-6-(3-phenoxyphenyl)-[1,2,4]triazolo[4,3-a]pyridin-3(2H)-one] | 24.4 |
| O=c1n(CCOc2nccc3ccccc23)nc2ccc(-c3ccc(OC(F)(F)F)cc3)cn12 [compound 141, 2-(2-(isoquinolin-1-yloxy)ethyl)-6-(4-(trifluoromethoxy)phenyl)-[1,2,4]triazolo[4,3-a]pyridin-3(2H)-one] | 29.9 |
| Cn1nc2ccc(-c3ccc(C(F)(F)F)cc3)cn2c1=O [compound 185, 2-methyl-6-(4-(trifluoromethyl)phenyl)-[1,2,4]triazolo[4,3-a]pyridin-3(2H)-one] | 10.1 |
| O=c1n(CCCOc2ccccc2C(F)(F)F)nc2ccc(-c3ccc(OC(F)(F)F)cc3)cn12 [compound 66, 6-(4-(trifluoromethoxy)phenyl)-2-(3-(2-(trifluoromethyl)phenoxy)propyl)-[1,2,4]triazolo[4,3-a]pyridin-3(2H)-one] | 14.7 |
| O=c1n(CC#Cc2cnccc2Cl)nc2ccc(-c3ccc(OC(F)(F)F)cc3)cn12 [compound 68, 2-(3-(4-chloropyridin-3-yl)prop-2-ynyl)-6-(4-(trifluoromethoxy)phenyl)-[1,2,4]triazolo[4,3-a]pyridin-3(2H)-one] | 11.1 |
| N#Cc1ccccc1OCCCn1nc2ccc(-c3ccc(OC(F)(F)F)cc3)cn2c1=O [compound 70, 2-(3-(3-oxo-6-(4-(trifluoromethoxy)phenyl)-[1,2,4]triazolo[4,3-a]pyridin-2(3H)-yl)propoxy)benzonitrile] | 29.9 |
| Cc1nc(COCCn2nc3ccc(-c4ccc(OC(F)(F)F)cc4)cn3c2=O)no1 [compound 86, 2-(2-((5-methyl-1,2,4-oxadiazol-3-yl)methoxy)ethyl)-6-(4-(trifluoromethoxy)phenyl)-[1,2,4]triazolo[4,3-a]pyridin-3(2H)-one] | 17.5 |
| Cc1cccc(C)c1OCCn1nc2ccc(-c3ccc(OC(F)(F)F)cc3)cn2c1=O [compound 44, 2-(2-(2,6-dimethylphenoxy)ethyl)-6-(4-(trifluoromethoxy)phenyl)-[1,2,4]triazolo[4,3-a]pyridin-3(2H)-one] | 43.1 |
| O=c1n(CCN2CCC(Oc3ccccc3)C2)nc2ccc(-c3ccc(OC(F)(F)F)cc3)cn12 (stereo not shown) [compound 39, 2-(2-(3-phenoxypyrrolidin-1-yl)ethyl)-6-(4-(trifluoromethoxy)phenyl)-[1,2,4]triazolo[4,3-a]pyridin-3(2H)-one] | 45.4 |
| Cc1cnc(Cn2nc3ccc(-c4ccc(OC(F)(F)F)cc4)cn3c2=O)o1 [compound 25, 2-((5-methyloxazol-2-yl)methyl)-6-(4-(trifluoromethoxy)phenyl)-[1,2,4]triazolo[4,3-a]pyridin-3(2H)-one] | 30.3 |
| Cc1noc(Cn2nc3ccc(-c4ccc(Oc5ccc(Cl)cc5)cc4)cn3c2=O)n1 [compound 53, 6-(4-(4-chlorophenoxy)phenyl)-2-((3-methyl-1,2,4-oxadiazol-5-yl)methyl)-[1,2,4]triazolo[4,3-a]pyridin-3(2H)-one] | 55.9 |
| O=c1n(CC(O)COc2ccccc2-c2ccccc2)nc2ccc(-c3ccc(OC(F)(F)F)cc3)cn12 (stereo not shown) [compound 100, 2-(3-(biphenyl-2-yloxy)-2-hydroxypropyl)-6-(4-(trifluoromethoxy)phenyl)-[1,2,4]triazolo[4,3-a]pyridin-3(2H)-one] | 18 |
| [2H]C([2H])([2H])c1noc(Cn2nc3ccc(-c4ccc(OC(F)(F)F)cc4)cn3c2=O)n1 [compound 169, 2-((3-trideuteromethyl-1,2,4-oxadiazol-5-yl)methyl)-6-(4-(trifluoromethoxy)phenyl)-[1,2,4]triazolo[4,3-a]pyridin-3(2H)-one] | 24.1 |
